# Assay results from ChEMBL document CHEMBL1138671, “Structure-based design, synthesis, and evaluation of conformationally constrained mimetics of the second mitochondria-derived activator of caspase that target the X-linked inhibitor of apoptosis protein/caspase-9 interaction site” (J Med Chem, 2004).
# Target: E3 ubiquitin-protein ligase XIAP (Homo sapiens, UniProt P98170)
# Assay: Binding affinity for the recombinant XIAP BIR3 protein in displacing a fluorescently labeled Smac peptide
# Chain of E3 ubiquitin-protein ligase XIAP (P98170 whole entry): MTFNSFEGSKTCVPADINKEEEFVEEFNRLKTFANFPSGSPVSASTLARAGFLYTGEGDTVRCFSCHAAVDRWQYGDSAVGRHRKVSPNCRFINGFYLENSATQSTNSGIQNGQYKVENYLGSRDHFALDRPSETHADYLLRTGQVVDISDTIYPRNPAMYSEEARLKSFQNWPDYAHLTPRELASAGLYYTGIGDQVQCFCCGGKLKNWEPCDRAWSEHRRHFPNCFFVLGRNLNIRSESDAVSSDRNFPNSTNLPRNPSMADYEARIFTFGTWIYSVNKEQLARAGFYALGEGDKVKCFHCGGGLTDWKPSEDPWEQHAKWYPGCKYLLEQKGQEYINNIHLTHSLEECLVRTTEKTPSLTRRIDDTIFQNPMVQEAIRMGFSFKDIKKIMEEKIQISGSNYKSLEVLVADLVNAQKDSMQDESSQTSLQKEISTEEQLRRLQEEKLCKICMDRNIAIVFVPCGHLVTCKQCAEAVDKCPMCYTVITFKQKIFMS
row,SMILES,Ki
1,CCC[C@H](N)C(=O)NC1CC[C@H]2CC[C@@H](C(=O)NCc3ccccc3)N2C1=O (some centres not stated),> 100 µM
2,C[C@H](N)C(=O)NC1CC[C@H]2CC[C@@H](C(=O)Nc3ccccc3)N2C1=O (some centres not stated),> 100 µM
